Assays:
[1] = system: immature embryos of Nortai plants (control); experiment: In vitro callus induction and growth from immature embryos on imazethapyr; assay type: cell-based, rice
Protocol: (§1) Immature embryos (12-14 days after fertilization) were dissected from transgenic homozygous T2 plants, identified as 26-4 in FIG. 1, or seed-grown Nortai plants and placed in N6 basal medium (Chiu et al., Sci. Sin 18:659-68, 1975) supplemented with 2 mg/l 2,4-D, 3% sucrose, 0.6% agarose (3SN6d2) amended with 0, 0.01, 0.033, 0.1, 0.3, 1.0, 3.3, 10, 25, or 50 μM imazethapyr (AC263,499). Five embryos were placed on one 10×60 mm Petri dish with two to three plates for each concentration as replications. Three weeks later, in vitro cellular response was monitored by measuring the fresh weight of callus derived from individual embryos.

[2] = system: immature embryos of transgenic homozygous T2 plants (26-4); experiment: as above; assay type: cell-based, rice
Protocol: as §1

[3] = system: transgenic rice Line 26 (maize XI12 ahas2 gene); experiment: Greenhouse spray test of rice with PURSUIT imazethapyr (pre- and post-emergence); assay type: in vivo
[4] = system: transgenic suspension cells (T2 plant 26-4-10); experiment: In vitro growth of suspension cells on imazethapyr; assay type: cell-based, rice; conditions: 8-week culture
Protocol: (§2) Cell suspension cultures were initiated from immature embryo-derived calli from either transgenic homozygous T2 plant 26-4-10 or Nortai plants in 3SN6d2 liquid medium and cultured two to three months prior to treatment with various concentrations of imazethapyr. The suspension cells were filtered through a 40μ nylon mesh, collected, and resuspended in 3SN6d2 liquid medium 0.2 ml of the suspended cells were loaded onto a Millipore filter, then placed on top of agarose solidified medium containing 0, 0.1, 0.25, 0.5, 1.0, 2.5, 5, 10, 25, or 50 μM imazethapyr (AC263,499). Three weeks later, all cultures were transferred once to fresh media with the same concentrations of imazethapyr and grown for another 5 weeks. Fresh weight was measured at the end of an 8-week culture period.

[5] = system: Nortai (control) suspension cells; experiment: In vitro growth of suspension cells on imazethapyr; assay type: cell-based, rice
Protocol: as §2

[6] = system: non-transformed Ciccio and Colosseo wheat plants; experiment: Greenhouse spray test of wheat with RAPTOR imazamox; assay type: in vivo
From the text: Sow seed to 3×5-cell flats at about 10 seed per cell. Grow the plants for about two weeks. On the day of spraying, water plants well and let excess water drip out. Spray plants on a belt-sprayer with the imidazolinone herbicides at desired rates. […] Resume regular water schedule three days after spraying. Closely observe the plants for the next two to four weeks. Symptoms of herbicide injury will be visible two weeks after spraying and susceptible plants will die four to six weeks later. We usually measure plant height and score the plant morphology with a 0 to 10 rating with 0 for dead plants and 10 for healthy plants with no or minimum injury.
We also analyzed T2 progeny plants from one of the best lines of 0407-1-10. T2 seeds were planted at 10 seeds per pot and two pots per line were sprayed at 0, 10, 20, 30, 40 and 50 g/ha RAPTOR® imazamox. Most plants did show an increase in resistance over non-transformed control (FIG. 6B).

[7] = post-emergence, Rate 63 (g ai/ha)
[8] = post-emergence, Rate 125 (g ai/ha)
[9] = post-emergence, Rate 250 (g ai/ha)

**Q.** With `CCc1cnc(C2=NC(C)(C(C)C)C(=O)N2)c(C(=O)O)c1` (stereo not shown) [PURSUIT ®, imazethapyr] as the compound, how does the “growth (reduced to) on imazethapyr” value ([1]; 0.03 μM) read?
**A.** less than 50%

**Q.** What about the “concentration at which callus induction was totally inhibited” value ([1]; 3 weeks) of the same compound?
**A.** 0.1 µM

**Q.** What about the “concentration up to which callus induction and growth were normal” value ([2]; transgenic embryos) of the same compound?
**A.** up to 1 μM

**Q.** And the “concentration with no callus induction” value ([2]; transgenic embryos)?
**A.** 10 µM

**Q.** And the reduction in growth ([2]; transgenic embryos, 3.3 μM)?
**A.** about 50%

**Q.** What about the “increase in resistance to imazethapyr in vitro” value ([2]; transgenic vs untransformed, immature embryos (also suspension cells / cell lines)) of the same compound?
**A.** 100 fold

**Q.** What about the “No. panicles/plant Mean” value [3, 7] of the same compound?
**A.** 25.3

**Q.** What about the “No. tillers/plant Mean” value [3, 7] of the same compound?
**A.** 27.1

**Q.** And the “Plant height Mean” value [3, 7]?
**A.** 110.1 cm

**Q.** What about the “Yield % 0×” value [3, 7] of the same compound?
**A.** 98 % 0×

**Q.** What about the “Yield Mean” value [3, 7] of the same compound?
**A.** 206.7 g/5 plants

**Q.** What about the “No. panicles/plant Mean” value [3, 8] of the same compound?
**A.** 22.8

**Q.** And the “No. tillers/plant Mean” value [3, 8]?
**A.** 25.6

**Q.** What about the “Plant height Mean” value [3, 8] of the same compound?
**A.** 108.1 cm

**Q.** What about the “Yield % 0×” value [3, 8] of the same compound?
**A.** 98 % 0×

**Q.** What about the “Yield Mean” value [3, 8] of the same compound?
**A.** 206.0 g/5 plants

**Q.** And the “No. panicles/plant Mean” value [3, 9]?
**A.** 21.7

**Q.** And the “No. tillers/plant Mean” value [3, 9]?
**A.** 25.4

**Q.** And the “Plant height Mean” value [3, 9]?
**A.** 110.3 cm

**Q.** What about the “Yield % 0×” value [3, 9] of the same compound?
**A.** 96 % 0×

**Q.** What about the “Yield Mean” value [3, 9] of the same compound?
**A.** 202.7 g/5 plants

**Q.** And the “No. panicles/plant Mean” value ([3]; pre-emergence, 63 g/ha)?
**A.** 13.2

**Q.** What about the “No. tillers/plant Mean” value ([3]; pre-emergence, 63 g/ha) of the same compound?
**A.** 14.3

**Q.** What about the “Plant height Mean” value ([3]; pre-emergence, 63 g/ha) of the same compound?
**A.** 92.2 cm

**Q.** And the “Yield % 0×” value ([3]; pre-emergence, 63 g/ha)?
**A.** 101 % 0×

**Q.** And the “Yield Mean” value ([3]; pre-emergence, 63 g/ha)?
**A.** 155.3 g/5 plants

**Q.** And the “No. panicles/plant Mean” value ([3]; pre-emergence, 125 g/ha)?
**A.** 14.4

**Q.** What about the “No. tillers/plant Mean” value ([3]; pre-emergence, 125 g/ha) of the same compound?
**A.** 15.3

**Q.** And the “Plant height Mean” value ([3]; pre-emergence, 125 g/ha)?
**A.** 89.7 cm

**Q.** And the “Yield % 0×” value ([3]; pre-emergence, 125 g/ha)?
**A.** 111 % 0×

**Q.** And the “Yield Mean” value ([3]; pre-emergence, 125 g/ha)?
**A.** 170.0 g/5 plants

**Q.** What about the “No. panicles/plant Mean” value ([3]; pre-emergence, 250 g/ha) of the same compound?
**A.** 15.7

**Q.** What about the “No. tillers/plant Mean” value ([3]; pre-emergence, 250 g/ha) of the same compound?
**A.** 13.3

**Q.** And the “Plant height Mean” value ([3]; pre-emergence, 250 g/ha)?
**A.** 88.5 cm

**Q.** What about the “Yield % 0×” value ([3]; pre-emergence, 250 g/ha) of the same compound?
**A.** 109 % 0×

**Q.** What about the “Yield Mean” value ([3]; pre-emergence, 250 g/ha) of the same compound?
**A.** 167.0 g/5 plants

**Q.** What about the “concentration up to which growth of transgenic suspension cells was normal” value [4] of the same compound?
**A.** up to 1.0 μm

**Q.** What about the “concentration with no growth” value [4] of the same compound?
**A.** 5 μm

**Q.** What about the “concentration with sharp decrease in growth” value [4] of the same compound?
**A.** 2 μm

**Q.** And the “concentrations that inhibit the growth of untransformed rice cells” value ([5]; in vitro)?
**A.** ≥ 0.1 µM

**Q.** What about the “concentration at which growth of control cells was halted” value ([5]; lowest concentration used, 8-week culture) of the same compound?
**A.** 0.1 μm

**Q.** For `COCc1cnc(C2=NC(C)(C(C)C)C(=O)N2)c(C(=O)O)c1` (stereo not shown) [RAPTOR ®, imazamox], which “plant heights of Ciccio and Colosseo reduced, less than those of transformed plants” value ([6]; 10 g/ha) is on record?
**A.** 50%

**Q.** What about the “fate of non-transformed Ciccio” value ([6]; 50 g/ha) of the same compound?
**A.** caused death
